Reference: the supplement of paper PMC10307832

Assays:
Assay in all cases: relative viability (nuclei count vs DMSO), 5 days (fraction); higher = more cells survive
[1] = compound: O=C(NCCCNc1nc(Nc2cccc(NC(=O)N3CCCC3)c2)ncc1I)c1cccs1 [BX 795]
How it was run: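 Five library-drug doses, separated by factors of √10, were pinned into 1536-well plates holding lung cancer cell lines after an overnight stay at 37 °C. Cells were fixed, permeabilised and Hoechst-stained in one step after 5 days without medium change, then imaged at 4×. Viability compares treated-well with vehicle-well nuclei, counted in MetaXpress, as a median across plates. Passing plates had control CV below 25% and at least one doubling.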

[2] = compound: O=C(NCCCNc1nc(Nc2cccc(NC(=O)N3CCCC3)c2)ncc1I)c1cccs1 [BX 795] + CC(C)C[C@H](NC(=O)[C@H](Cc1ccccc1)NC(=O)c1cnccn1)B(O)O [Bortezomib] (partner 0.002 µM)
How it was run: (§1)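 Relative viability equals treated-well nuclei counts divided by vehicle-well nuclei counts. Counts came from 4× images of lung cancer cell lines grown in 1536-well plates for 5 days after pin-tool dosing on the day after seeding. Dosing used one drug alone or a fixed anchor-drug dose plus five library-drug doses (not always all listed) in √10 steps, and values are medians of duplicate plates.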

[3] = compound: O=C(NCCCNc1nc(Nc2cccc(NC(=O)N3CCCC3)c2)ncc1I)c1cccs1 [BX 795] + CC1(C)CCC(c2ccc(Cl)cc2)=C(CN2CCN(c3ccc(C(=O)NS(=O)(=O)c4ccc(N[C@H](CCN5CCOCC5)CSc5ccccc5)c(S(=O)(=O)C(F)(F)F)c4)cc3)CC2)C1 [Navitoclax] (partner 0.5 µM)
How it was run: as §1

[4] = compound: O=C(NCCCNc1nc(Nc2cccc(NC(=O)N3CCCC3)c2)ncc1I)c1cccs1 [BX 795] + COc1cc2c(Oc3ccc(NC(=O)C4(C(=O)Nc5ccc(F)cc5)CC4)cc3F)ccnc2cc1OCCCN1CCOCC1 [Foretinib] (partner 0.25 µM)
How it was run: as §1

[5] = compound: O=C(NCCCNc1nc(Nc2cccc(NC(=O)N3CCCC3)c2)ncc1I)c1cccs1 [BX 795] + CS(=O)(=O)CCNCc1ccc(-c2ccc3ncnc(Nc4ccc(OCc5cccc(F)c5)c(Cl)c4)c3c2)o1 [Lapatinib] (partner 2 µM)
How it was run: as §1

[6] = compound: O=C(NCCCNc1nc(Nc2cccc(NC(=O)N3CCCC3)c2)ncc1I)c1cccs1 [BX 795] + CS(=O)(=O)N1CCN(Cc2cc3nc(-c4cccc5[nH]ncc45)nc(N4CCOCC4)c3s2)CC1 [Pictilisib] (partner 1 µM)
How it was run: as §1

[7] = compound: O=C(NCCCNc1nc(Nc2cccc(NC(=O)N3CCCC3)c2)ncc1I)c1cccs1 [BX 795] + C[C@@H](Oc1cc(-c2cnn(C3CCNCC3)c2)cnc1N)c1c(Cl)ccc(F)c1Cl [Crizotinib] (partner 1 µM)
How it was run: as §1

[8] = compound: O=C(NCCCNc1nc(Nc2cccc(NC(=O)N3CCCC3)c2)ncc1I)c1cccs1 [BX 795] + C[C@]1(O)C[C@@H](c2nc(-c3ccc4ccc(-c5ccccc5)nc4c3)c3c(N)nccn32)C1 [Linsitinib] (partner 1 µM)
How it was run: as §1

[9] = compound: O=C(NCCCNc1nc(Nc2cccc(NC(=O)N3CCCC3)c2)ncc1I)c1cccs1 [BX 795] + Cc1nc(NC(=O)N2CCC[C@H]2C(N)=O)sc1-c1ccnc(C(C)(C)C(F)(F)F)c1 [Alpelisib] (partner 2 µM)
How it was run: as §1

[10] = compound: O=C(NCCCNc1nc(Nc2cccc(NC(=O)N3CCCC3)c2)ncc1I)c1cccs1 [BX 795] + O=C(c1cc(Cc2n[nH]c(=O)c3ccccc23)ccc1F)N1CCN(C(=O)C2CC2)CC1 [Olaparib] (partner 8 µM)
How it was run: as §1

NCI-H1299
relative viability ([1]; 0.04 µM): 0.972 | relative viability ([1]; 0.1265 µM): 1.03 | relative viability ([1]; 0.4 µM): 1.05 | relative viability ([1]; 1.265 µM): 0.883 | relative viability ([2]; first compound 0.04 µM): 1.08 | relative viability ([2]; first compound 0.1265 µM): 1.01 | relative viability ([2]; first compound 0.4 µM): 1.06 | relative viability ([2]; first compound 1.265 µM): 0.938 | relative viability ([3]; first compound 0.04 µM): 1.05 | relative viability ([3]; first compound 0.1265 µM): 0.996 | relative viability ([3]; first compound 0.4 µM): 1.06 | relative viability ([3]; first compound 1.265 µM): 0.926 | relative viability ([4]; first compound 0.04 µM): 1.13 | relative viability ([4]; first compound 0.1265 µM): 1.09 | relative viability ([4]; first compound 0.4 µM): 1.16 | relative viability ([4]; first compound 1.265 µM): 0.876 | relative viability ([5]; first compound 0.04 µM): 0.885 | relative viability ([5]; first compound 0.1265 µM): 0.977 | relative viability ([5]; first compound 0.4 µM): 1.02 | relative viability ([5]; first compound 1.265 µM): 0.798 | relative viability ([6]; first compound 0.04 µM): 0.759 | relative viability ([6]; first compound 0.1265 µM): 0.747 | relative viability ([6]; first compound 0.4 µM): 0.751 | relative viability ([6]; first compound 1.265 µM): 0.399 | relative viability ([7]; first compound 0.04 µM): 1 | relative viability ([7]; first compound 0.1265 µM): 0.933 | relative viability ([7]; first compound 0.4 µM): 1.01 | relative viability ([7]; first compound 1.265 µM): 0.674 | relative viability ([8]; first compound 0.04 µM): 0.983 | relative viability ([8]; first compound 0.1265 µM): 0.968 | relative viability ([8]; first compound 0.4 µM): 0.987 | relative viability ([8]; first compound 1.265 µM): 0.767 | relative viability ([9]; first compound 0.04 µM): 1.05 | relative viability ([9]; first compound 0.1265 µM): 1.09 | relative viability ([9]; first compound 0.4 µM): 1.07 | relative viability ([9]; first compound 1.265 µM): 1 | relative viability ([10]; first compound 0.04 µM): 1.02 | relative viability ([10]; first compound 0.1265 µM): 0.985 | relative viability ([10]; first compound 0.4 µM): 0.918 | relative viability ([10]; first compound 1.265 µM): 0.637
